Experimental findings from EP4610269A1, “UROKINASE PLASMINOGEN ACTIVATOR SURFACE RECEPTOR (UPAR) LIGANDS FOR DIAGNOSTIC OR THERAPEUTIC USE” (3B Pharmaceuticals GmbH, priority 2024, dated 2025) are described below.

Data set [1] concerns the target T1, uPAR-expressing HEC-265 human endometrial adenocarcinoma cells (Homo sapiens, UniProt Q03405).
T1 construct: Cell surface uPAR-expressing HEC-265 human endometrial adenocarcinoma cells; host or cells: HEC-265
The data set can be described thus: Competitive FACS binding assay. Particulars: pIC50 category of FACS binding. The method in brief:
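Competitive displacement of a 10 nM biotinylated peptide from HEC-265 cells (1 h, 4 °C, PBS/1% BSA), detected via APC-streptavidin by flow cytometry. pIC50 from four-parameter logistic fit of median fluorescence versus concentration.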
On the technique in general: A flow cytometer gives signals particle by particle.

The nature of data set [2]: Plasma stability assay (mouse plasma). Type of data set: in vitro ADME. As to conditions: mouse plasma (sodium citrate 3.7%), 37°C, LC-MS quantification, read-out: % intact compound remaining after 6h incubation Mouse plasma. The method in brief:
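Compound from a 0.5 mM DMSO stock was spiked into sodium-citrate human or mouse plasma and incubated at 37°C for 0 and 6 h in duplicate. After protein precipitation with internal standard, intact compound was quantified by UHPLC-Q-TOF MS (positive ESI) against matrix calibration, reported as % remaining after 6 h.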

Molecules are shown by their SMILES. *1 amine or outer side, *2 acyl side, *3 side chain or, on linkers, in order; H or OH if unused. Where a SMILES comes first, the peptide text is derived from it. Bridges are numbered along the chain shown (N, C = ends). [ ]: non-standard residue; d: D form. The star is where a group is joined. Pro(trans-4-NH2) = O=C([C@@H]1C[C@@H](N[*:3])CN1[*:1])[*:2]; DOTA = O=C(O)CN1CCN(CC(=O)O)CCN(CC(=O)*)CCN(CC(=O)O)CC1; Hyp = O=C(O)[C@@H]1C[C@@H](O)CN1; 3Pal = N[C@@H](Cc1cccnc1)C(=O)O; Pentanoyl(4-Me) = CC(C)CCC(=O)*; Cit = NC(=O)NCCC[C@H](N)C(=O)O; Suc = O=C(CCC(=O)[*:2])[*:1]; Nva = CCC[C@H](N)C(=O)O; Pentanoyl = CCCCC(=O)*; AEEA = NCCOCCOCC(=O)O

T1 sequence (Q03405 23-335): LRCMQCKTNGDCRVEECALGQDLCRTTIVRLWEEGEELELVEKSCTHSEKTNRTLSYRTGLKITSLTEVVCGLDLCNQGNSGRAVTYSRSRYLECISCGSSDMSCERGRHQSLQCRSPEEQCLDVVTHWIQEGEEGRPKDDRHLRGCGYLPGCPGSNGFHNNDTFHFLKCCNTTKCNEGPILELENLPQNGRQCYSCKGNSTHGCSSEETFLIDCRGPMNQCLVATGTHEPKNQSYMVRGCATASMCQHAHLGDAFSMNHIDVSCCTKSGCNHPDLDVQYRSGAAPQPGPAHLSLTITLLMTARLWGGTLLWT

As to `CCCCC(=O)N[C@H]1CSSC[C@@H](C(N)=O)NC(=O)[C@H](CCC)NC(=O)[C@H]([C@@H](C)CC)NC(=O)[C@@H]2C[C@@H](O)CN2C(=O)[C@@H]2CCCN2C(=O)[C@H](Cc2ccccc2)NC(=O)[C@H](Cc2cccnc2)NC(=O)[C@H](CCCCNC(=O)CN2CCN(CC(=O)O)CCN(CC(=O)O)CCN(CC(=O)O)CC2)NC(=O)[C@H](CCCNC(N)=O)NC1=O` [UPAR-138, Pent-[Cys-Cit-Lys(DOTA)-Mpa-Phe-Pro-Hyp-Ile-Nva-Cys]-NH2] (Pentanoyl-C[Cit]K(DOTA)[3Pal]FP[Hyp]I[Nva]C-NH2; disulfide 1-10), the IC50 (usually the concentration needed to halve the response being measured) in data set [1] was no more than 10 nM. For the same compound, the share remaining (usually the share of the starting amount still present when the sample was taken) at 6 h, 9.8 µM in data set [2] is 91%.

In data set [1], `CC[C@H](C)[C@@H]1NC(=O)[C@@H]2C[C@@H](O)CN2C(=O)[C@@H]2CCCN2C(=O)[C@H](Cc2ccccc2)NC(=O)[C@H](Cc2ccc(O)cc2)NC(=O)[C@H](CCC(N)=O)NC(=O)[C@H](CCCNC(N)=O)NC(=O)[C@@H](NC(=O)CCC(C)C)CSSC[C@@H](C(N)=O)NC(=O)[C@H](CC(C)C)NC1=O` [UPAR-174, iHex-[Cys-Cit-Gln-Tyr-Phe-Pro-Hyp-Ile-Leu-Cys]-NH2] ({Pentanoyl(4-Me)}-C[Cit]QYFP[Hyp]ILC-NH2; disulfide 1-10) gave a half-inhibitory concentration (IC50) of no more than 10 nM. Moreover, the share remaining at 6 h, 9.8 µM in data set [2] was 71%.

Consider `CC[C@H](C)[C@@H]1NC(=O)[C@@H](C)NC(=O)[C@@H]2CCCN2C(=O)[C@H](Cc2ccccc2)NC(=O)[C@H](Cc2ccc(O)cc2)NC(=O)[C@H](CCCCNC(=O)CN2CCN(CC(=O)O)CCN(CC(=O)O)CCN(CC(=O)O)CC2)NC(=O)[C@H](CCCNC(N)=O)NC(=O)[C@@H](NC(=O)[C@H](CC(C)C)NC(=O)[C@H](CC(=O)O)NC(C)=O)CSSC[C@@H](C(N)=O)NC(=O)[C@H](CC(C)C)NC1=O` [UPAR-189, Ac-Asp-Leu-[Cys-Cit-Lys(DOTA)-Tyr-Phe-Pro-ala-Ile-Leu-Cys]-NH2] (Ac-DLC[Cit]K(DOTA)YFP[dA]ILC-NH2; disulfide 3-12), for which the IC50 in data set [1] is no more than 10 nM. For the same compound, the fraction remaining at 6 h, 9.8 µM in data set [2] is greater than 95%.

For the compound `CC[C@H](C)[C@@H]1NC(=O)[C@@H]2CCCN2C(=O)[C@@H]2CCCN2C(=O)[C@H](Cc2ccccc2)NC(=O)[C@H](Cc2ccc(O)cc2)NC(=O)[C@H](CCC(N)=O)NC(=O)[C@H](CCCNC(N)=O)NC(=O)[C@@H](NC(=O)[C@H](CC(C)C)NC(=O)COCCOCCNC(=O)CN2CCN(CC(=O)O)CCN(CC(=O)O)CCN(CC(=O)O)CC2)CSSC[C@@H](C(N)=O)NC(=O)[C@H](CC(C)C)NC1=O` [UPAR-229, DOTA-O2Oc-Leu-[Cys-Cit-Gln-Tyr-Phe-Pro-Pro-Ile-Leu-Cys]-NHz] ({DOTA-AEEA}-LC[Cit]QYFPPILC-NH2; disulfide 2-11), the IC50 in data set [1] is no more than 10 nM. The fraction remaining at 6 h, 9.8 µM in data set [2] amounted to 90%.

In data set [1], `CC[C@H](C)[C@@H]1NC(=O)[C@@H](C)NC(=O)[C@@H]2CCCN2C(=O)[C@H](Cc2ccccc2)NC(=O)[C@H](Cc2ccc(O)cc2)NC(=O)[C@H](CCC(N)=O)NC(=O)[C@H](CCCNC(N)=O)NC(=O)[C@@H](NC(=O)[C@H](CC(C)C)NC(=O)COCCOCCNC(=O)CN2CCN(CC(=O)O)CCN(CC(=O)O)CCN(CC(=O)O)CC2)CSSC[C@@H](C(N)=O)NC(=O)[C@H](CC(C)C)NC1=O` [UPAR-245, DOTA-O2Oc-Leu-[Cys-Cit-Gln-Tyr-Phe-Pro-ala-Ile-Leu-Cys]-NH2] ({DOTA-AEEA}-LC[Cit]QYFP[dA]ILC-NH2; disulfide 2-11) gave an IC50 of no more than 10 nM. Moreover, the share remaining at 6 h, 9.8 µM in data set [2] was 74%.

`CCCCC(=O)N[C@H]1CSSC[C@@H](C(N)=O)NC(=O)[C@H](CCC)NC(=O)[C@H]([C@@H](C)CC)NC(=O)[C@@H]2C[C@@H](O)CN2C(=O)[C@@H]2CCCN2C(=O)[C@H](Cc2ccccc2)NC(=O)[C@H](Cc2ccc(O)cc2)NC(=O)[C@H](CCCCNC(=O)CN2CCN(CC(=O)O)CCN(CC(=O)O)CCN(CC(=O)O)CC2)NC(=O)[C@H](CCCNC(N)=O)NC1=O` [UPAR-261, Pent-[Cys-Cit-Lys(DOTA)-Tyr-Phe-Pro-Hyp-Ile-Nva-Cys]-NH2] (Pentanoyl-C[Cit]K(DOTA)YFP[Hyp]I[Nva]C-NH2; disulfide 1-10) had a 50% inhibitory concentration (IC50) in data set [1] of no more than 10 nM. Besides, the fraction remaining at 6 h, 9.8 µM in data set [2] is 82%.

In data set [1], `CCC[C@H](NC(=O)CCC(=O)O)C(=O)N[C@H]1CSSC[C@@H](C(N)=O)NC(=O)[C@H](CCC)NC(=O)[C@H]([C@@H](C)CC)NC(=O)[C@@H]2C[C@@H](O)CN2C(=O)[C@@H]2CCCN2C(=O)[C@H](Cc2ccccc2)NC(=O)[C@H](Cc2ccc(O)cc2)NC(=O)[C@H](CCCCNC(=O)CN2CCN(CC(=O)O)CCN(CC(=O)O)CCN(CC(=O)O)CC2)NC(=O)[C@H](CCCNC(N)=O)NC1=O` [UPAR-293, HO-Succinyl-Nva-[Cys-Cit-Lys(DOTA)-Tyr-Phe-Pro-Hyp-Ile-Nva-Cys]-NH2] (Suc-[Nva]C[Cit]K(DOTA)YFP[Hyp]I[Nva]C-NH2; disulfide 2-11) had a half-inhibitory concentration (IC50) of no more than 10 nM. The fraction remaining at 6 h, 9.8 µM in data set [2] is greater than 95%.

As to `CC[C@H](C)[C@@H]1NC(=O)[C@@H](CCCNC(=N)N)NC(=O)[C@@H]2CCCN2C(=O)[C@H](Cc2ccccc2)NC(=O)[C@H](Cc2ccc(O)cc2)NC(=O)[C@H](CCCCNC(=O)CN2CCN(CC(=O)O)CCN(CC(=O)O)CCN(CC(=O)O)CC2)NC(=O)[C@H](CCCNC(N)=O)NC(=O)[C@@H](NC(=O)[C@H](CC(C)C)NC(=O)[C@H](CC(=O)O)NC(C)=O)CSSC[C@@H](C(N)=O)NC(=O)[C@H](CC(C)C)NC1=O` [UPAR-306, Ac-Asp-Leu-[Cys-Cit-Lys(DOTA)-Tyr-Phe-Pro-arg-Ile-Leu-Cys]-NH2] (Ac-DLC[Cit]K(DOTA)YFP[dR]ILC-NH2; disulfide 3-12), the half-maximal inhibitory concentration (IC50) in data set [1] was no more than 10 nM. Also, the share remaining at 6 h, 9.8 µM in data set [2] was found to be 95%.

`CC[C@H](C)[C@@H]1NC(=O)[C@@H](C)NC(=O)[C@@H]2CCCN2C(=O)[C@H](Cc2ccccc2)NC(=O)[C@H](Cc2ccc(O)cc2)NC(=O)[C@H](CCC(N)=O)NC(=O)[C@H](CCCNC(N)=O)NC(=O)[C@@H](NC(=O)CCC(C)C)CSSC[C@@H](C(N)=O)NC(=O)[C@H](CC(C)C)NC1=O` [UPAR-338, iHex-[Cys-Cit-Gln-Tyr-Phe-Pro-ala-Ile-Leu-Cys]-NH2] ({Pentanoyl(4-Me)}-C[Cit]QYFP[dA]ILC-NH2; disulfide 1-10) gave a concentration for half-maximal inhibition (IC50) in data set [1] of no more than 10 nM. Besides, the amount remaining at 6 h, 9.8 µM in data set [2] was found to be 73%.

The compound `CC[C@H](C)[C@@H]1NC(=O)[C@@H]2CCCN2C(=O)[C@@H]2CCCN2C(=O)[C@H](Cc2ccccc2)NC(=O)[C@H](Cc2ccc(O)cc2)NC(=O)[C@H](CCCCNC(=O)CN2CCN(CC(=O)O)CCN(CC(=O)O)CCN(CC(=O)O)CC2)NC(=O)[C@H](CCCNC(N)=O)NC(=O)[C@@H](NC(=O)CCC(C)C)CSSC[C@@H](C(N)=O)NC(=O)[C@H](CC(C)C)NC1=O` [UPAR-382, iHex-[Cys-Cit-Lys(DOTA)-Tyr-Phe-Pro-Pro-Ile-Leu-Cys]-NHz] ({Pentanoyl(4-Me)}-C[Cit]K(DOTA)YFPPILC-NH2; disulfide 1-10) showed an IC50 in data set [1] of no more than 10 nM. Besides, in data set [2], the fraction remaining at 6 h, 9.8 µM was 78%.

`CC[C@H](C)[C@@H]1NC(=O)[C@@H]2C[C@@H](NC(=O)CN3CCN(CC(=O)O)CCN(CC(=O)O)CCN(CC(=O)O)CC3)CN2C(=O)[C@@H]2CCCN2C(=O)[C@H](Cc2ccccc2)NC(=O)[C@H](Cc2ccc(O)cc2)NC(=O)[C@H](CCC(N)=O)NC(=O)[C@H](CCCNC(N)=O)NC(=O)[C@@H](NC(=O)CCC(C)C)CSSC[C@@H](C(N)=O)NC(=O)[C@H](CC(C)C)NC1=O` [UPAR-389, iHex-[Cys-Cit-Gln-Tyr-Phe-Pro-Tap(DOTA)-Ile-Leu-Cys]-NH2] ({Pentanoyl(4-Me)}-C[Cit]QYFP[Pro(trans-4-NH2)](DOTA)ILC-NH2; disulfide 1-10) showed an IC50 in data set [1] of no more than 10 nM. Also, in data set [2], the fraction remaining at 6 h, 9.8 µM came to 95%.
